Measured values: patent US20230303486A1, “CYCLOBUTYL-UREA DERIVATIVES” (Idorsia Pharmaceuticals Ltd, priority 2020, published 2023)
Like-named read-outs stand apart in the source and are kept apart here.

Tested on: primary neuronal cultures from embryonic rat brains
Test: Rat oscillation assay (FLIPR, neuronal calcium oscillations)
Assay type: cell-based
Settings: Rattus norvegicus
Description: This assay is a functional phenotypic assay designed to mimic epileptic seizures using primary neuronal cultures from embryonic rat brains, which form a functional neuronal network that generate synchronized intracellular calcium concentration oscillations when cultured at high density in 384-well plate. The epileptic phenotype is induced by incubating the neurons in magnesium-free assay buffer, that results in increased probability of NMDA receptor activation, leading to an increased frequency and amplitude of intracellular calcium oscillations. Once neurons are incubated with the calcium indicator dye Fluo-8 AM (Tebu-bio), neuronal calcium oscillations can be monitored in real time using FLIPR® Tetra (fluorometric plate reader, Molecular Devices). With these recordings, the effect of anti-epileptic drugs can be quantified. The anti-epileptic effect of compounds, which activate directly or indirectly the Kv7 channels can be modulated by the Kv7 channel blocker XE-991. The assay was performed as described previously (Pacico N, Mingorance-Le Meur A. New In Vitro Phenotypic Assay for Epilepsy: Fluorescent Measurement of Synchronized Neuronal Calcium Oscillations. PLoS ONE 9(1) 2014) with modifications described hereafter.
Animal care followed standard procedures in accordance with swiss institutional guidelines. Dissociated neuronal cultures were obtained from cerebral cortices of embryonic Wistar rats at embryonic stage E18 (Charles River). The uterine horns were removed by caesarian surgery from deeply anesthetized rats (Isofurane) and sacrificed by decapitation. The embryos were decapitated by closing forceps. The brains were isolated and dissected one by one in ice-cold PBS (Life Technologies) under optical control using a binocular. Meninges, olfactory bulbs, and basal ganglia were removed. Cortical hemispheres (still including the hippocampus) were cut in small pieces with tweezers and placed on ice in prechilled Hibernate-E medium (Life technology). The hemispheres were then incubated in 10 mL of Hibernate-E containing 15 U/mL papain (Worthington) for 25 min at 30° C. with gentle mixing every 10 min. Genomic DNA was then digested by prolonging the incubation during 10 min at 37° C. in presence of 4 U/mL rDNase I (Ambion). The obtained suspension was then centrifuged at 800 g for 5 min and the cell pellet was resuspended in 2 mL Hibernate-E and gently dissociated by pipetting up and down 10 times with a plastic Pasteur pipette resulting in a homogenous cell suspension. This suspension was immediately filtered through a 70 µm cell strainer (MACS® SmartStrainer, Miltenyi), collected in 10 mL Hibernate-E and centrifuged at 800 g for 5 min. The cell pellet was resuspended in Neurobasal medium, supplemented with 2% B-27, 0.5 mM Glutamax-I, 100 U/mL penicillin, 100 µg/mL streptomycin (Life Technologies) and diluted at the final concentration of 300′000 cells/mL. One day before plating the cells, 384-well plates were coated with 25 µL/well of 0.1 % poly-L-lysine solution (Sigma), incubated overnight at 37° C., washed two times with sterile distilled water and allowed to dry at room temperature for >2 h. The neurons were seeded at a density of 15′000 cells/well in 50 µL/well in a 384-well black, clear-bottomed plates (Corning) and subsequently maintained in an incubator at 37° C., 5% CO2 and 95% humidity for 8 to 10 days. After 3 and 7 days, 40% of media was renewed under sterile conditions.
Neurons seeded in the assay plates were washed with Hank’s balanced salt solution (HBSS) devoid of Ca^2+ and Mg^2+, supplemented with 20 mM HEPES (Life Technologies) and 2 mM CaCl2 (Sigma), pH 7.4 (hereafter called Assay buffer) using a Biotek EL406 plate washer. Neurons were loaded with 1 µM Fluo-8 AM in Assay buffer for 15 min at 37° C., 5% CO2. […]

[1] = 20 min, 20 min after compound addition, AUC of fluorescence, read-out: FLIPR: IC50 [nM] 20 min
[2] = Cortical neurone, acute phase, ratio of AUC fluorescence before and after compound addition, rat cortical neurons, Mg-free buffer, read-out: FLIPR: IC50 [nM] acute

SMILES	IC50 [1]	IC50 [2]
O=C(NCc1cccc(OCC(F)(F)F)c1)NC12CC(F)(C1)C2 [Example 17, 1-(3-Fluoro-Bicyclo[1.1.1]Pent-1-yl)-3-[3-(2,2,2-Trifluoro-Ethoxy)-Benzyl]-Urea]	239 nM	202 nM
O=C(NCc1cccc(OCC(F)(F)F)c1)NC1CC(C(F)F)C1 (stereo not shown) [Example 18, 1-(3-Difluoromethyl-cyclobutyl)-3-[3-(2,2,2-trifluoro-ethoxy)-benzyl]-urea]	1080 nM	377 nM
O=C(NCc1cccc(OCC(F)(F)F)c1)NC12CC(C(F)(F)F)(C1)C2 [Example 19, 1-[3-(2,2,2-Trifluoro-ethoxy)-benzyl]-3-(3-trifluoromethyl-bicyclo[1.1.1]pent-1-yl)-urea]	111 nM	50 nM
O=C(NCc1cccc(OC(F)F)c1)NC12CC(F)(C1)C2 [Example 20, 1-(3-Difluoromethoxy-Benzyl)-3-(3-Fluoro-Bicyclo[1.1.1]Pent-1-yl)-Urea]	467 nM	566 nM
O=C(NCc1cccc(OC(F)F)c1)NC1CC(C(F)F)C1 (stereo not shown) [Example 21, 1-(3-Difluoromethoxy-benzyl)-3-(3-difluoromethyl-cyclobutyl)-urea]	942 nM	373 nM
O=C(NCc1cccc(OC(F)F)c1)NC12CC(C(F)(F)F)(C1)C2 [Example 22, 1-(3-Difluoromethoxy-benzyl)-3-(3-trifluoromethyl-bicyclo[1.1.1]pent-1-yl)-urea]	311 nM	134 nM
O=C(NCc1cccc(OC(F)(F)F)c1)NC1CC(C(F)F)C1 (stereo not shown) [Example 25, 1-(3-Difluoromethyl-cyclobutyl)-3-(3-trifluoromethoxy-benzyl)-urea]	610 nM	235 nM
O=C(NCc1cccc(OC(F)(F)F)c1)NC12CC(C1)C2 [Example 26, 1-Bicyclo[1.1.1]pent-1-yl-3-(3-trifluoromethoxy-benzyl)-urea]	315 nM	295 nM
O=C(NCc1cccc(C(F)F)c1)NC1CC(C(F)F)C1 (stereo not shown) [Example 27, 1-(3-Difluoromethyl-Benzyl)-3-(3-Difluoromethyl-Cyclobutyl)-Urea]	1730 nM	1340 nM
O=C(NCc1cccc(C(F)F)c1)NC12CC(C(F)(F)F)(C1)C2 [Example 28, 1-(3-Difluoromethyl-Benzyl)-3-(3-Trifluoromethyl-Bicyclo[1.1.1]Pent-1-yl)-urea]	203 nM	117 nM
O=C(NCc1ccnc(OC(F)(F)F)c1)NC1CC(C(F)F)C1 (stereo not shown) [Example 29, 1-(3-Difluoromethyl-Cyclobutyl)-3-(2-Trifluoromethoxy-Pyridin-4-Ylmethyl)-Urea]	2150 nM	367 nM
O=C(NCc1ccnc(OC(F)(F)F)c1)NC12CC(C(F)(F)F)(C1)C2 [Example 30, 1-(2-Trifluoromethoxy-Pyridin-4-Ylmethyl)-3-(3-Trifluoromethyl-Bicyclo[1.1.1]Pent-1-yl)-Urea]	1480 nM	804 nM
O=C(NCc1cccc(C(F)(F)F)c1)NC12CC(C1)C2 [Example 35, 1-Bicyclo[1.1.1]Pent-1-yl-3-(3-Trifluoromethyl-Benzyl)-Urea]	717 nM	231 nM
O=C(NCc1cccc(C(F)(F)F)c1)NC12CC(F)(C1)C2 [Example 36, 1-(3-Fluoro-bicyclo[1.1.1]pent-1-yl)-3-(3-trifluoromethyl-benzyl)-urea]	344 nM	245 nM
O=C(NCc1cccc(C(F)(F)F)c1)NC1CC(C(F)F)C1 (stereo not shown) [Example 38, 1-(3-Difluoromethyl-cyclobutyl)-3-(3-trifluoromethyl-benzyl)-urea]	390 nM	135 nM
CC12CC(NC(=O)NCc3cccc(C(F)(F)F)c3)(C1)C2 [Example 39, 1-(3-Methyl-bicyclo[1.1.1]pent-1-yl)-3-(3-trifluoromethyl-benzyl)-urea]	68 nM	41 nM
O=C(NCc1cccc(C(F)(F)F)c1)NC12CC(CF)(C1)C2 [Example 40, 1-(3-Fluoromethyl-bicyclo[1.1.1]pent-1-yl)-3-(3-trifluoromethyl-benzyl)-urea]	248 nM	149 nM
